Test results from ChEMBL document CHEMBL1201862, “PubChem BioAssay data set” (2004).
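A five-concentration, 48-hour dose response in 96-well plates underlies each endpoint, interpolated linearly between surrounding concentrations. At the GI50, growth is halved.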 Calls of active or inactive are those of the source. Cut-off read from the data, not from the text of the source: active = GI50 up to about 1.1 µM and inactive = higher.

Assays:
Test in all cases: DTP human tumour cell line panel, 48 h
DU-145 = system: DU-145
SF-268 = system: SF-268
HOP-92 = system: HOP-92
NCI-H23 = system: NCI-H23
KM12 = system: KM12
K562 = system: K562
CAKI-1 = system: CAKI-1
SW-620 = system: SW-620
SR = system: SR
NCI-H460 = system: NCI-H460
HCT-15 = system: HCT-15
COLO 205 = system: COLO 205
EKVX = system: EKVX
BT-549 = system: BT-549
MOLT-4 = system: MOLT-4
HCC 2998 = system: HCC 2998
OVCAR-3 = system: OVCAR-3
MDA-N = system: MDA-N
LOX IMVI = system: LOX IMVI
SF-539 = system: SF-539

Measured: GI50

O=C1C(c2c(O)[nH]c3ccc(Br)cc23)=Nc2ccc(Br)cc21
43 µM: HCT-15
inactive: DU-145 25.4 µM | SF-268 33 µM | HOP-92 > 100 µM | NCI-H23 27.5 µM | KM12 44.2 µM | K562 43.9 µM | CAKI-1 > 100 µM | SW-620 74.5 µM | SR 32.1 µM | NCI-H460 37 µM | COLO 205 > 100 µM | EKVX 38.1 µM | BT-549 70.6 µM | MOLT-4 45 µM | HCC 2998 > 100 µM | OVCAR-3 > 100 µM | MDA-N 31.2 µM | LOX IMVI 62.1 µM

C[n+]1c2ccccc2c2/c(=C\C#N)c3ccccc3n21
inactive: DU-145 6.75 µM | SF-268 6.27 µM | NCI-H23 5.11 µM | KM12 3.61 µM | K562 5.42 µM | CAKI-1 23.8 µM | SW-620 3.07 µM | SF-539 4.82 µM | SR 3.91 µM | NCI-H460 4.35 µM | COLO 205 1.56 µM | EKVX 2.44 µM | BT-549 3.42 µM | MOLT-4 3.54 µM | HCC 2998 1.61 µM | OVCAR-3 3.44 µM | MDA-N 3.7 µM | LOX IMVI 3.48 µM
28.4 µM: HCT-15

CC(=O)c1cc2c(Br)cccc2oc1=O
inactive: DU-145 > 100 µM | SF-268 95.5 µM | HOP-92 > 100 µM | NCI-H23 > 100 µM | K562 99.1 µM | CAKI-1 > 100 µM | SW-620 > 100 µM | SF-539 > 100 µM | SR 46.8 µM | NCI-H460 > 100 µM | COLO 205 > 100 µM | EKVX > 100 µM | BT-549 79.1 µM | MOLT-4 > 100 µM | HCC 2998 > 100 µM | OVCAR-3 > 100 µM | MDA-N 52 µM | LOX IMVI > 100 µM
> 100 µM: HCT-15

O=C1C=CC(=O)c2cc(Sc3ccccc3)c(=O)ccc21
inactive: DU-145 17.4 µM | SF-268 22 µM | HOP-92 10.4 µM | NCI-H23 19.2 µM | KM12 18.1 µM | K562 2.49 µM | SW-620 3.83 µM | SF-539 19.8 µM | SR 1.58 µM | NCI-H460 22 µM | COLO 205 7.73 µM | EKVX 18.3 µM | BT-549 17.9 µM | MOLT-4 2.24 µM | HCC 2998 16.3 µM | OVCAR-3 16.9 µM | MDA-N 16.9 µM | LOX IMVI 13.1 µM
13.5 µM: HCT-15

COC(=O)c1ccc(Nc2nc3[nH]cnc3c(=O)[nH]2)cc1
inactive: DU-145 > 100 µM | SF-268 94 µM | HOP-92 > 100 µM | NCI-H23 > 100 µM | KM12 > 100 µM | CAKI-1 > 100 µM | SW-620 > 100 µM | SF-539 67.3 µM | SR 65.9 µM | NCI-H460 > 100 µM | COLO 205 > 100 µM | EKVX > 100 µM | BT-549 > 100 µM | MOLT-4 87.1 µM | HCC 2998 > 100 µM | OVCAR-3 54.6 µM | MDA-N 32.9 µM | LOX IMVI 95.5 µM
> 100 µM: HCT-15

CC(=O)N[C@@H](Cc1ccc(O)cn1)C(=O)NCc1cccc(F)c1
> 100 µM: HCT-15
inactive: DU-145 > 100 µM | SF-268 > 100 µM | HOP-92 30.9 µM | NCI-H23 > 100 µM | KM12 > 100 µM | K562 > 100 µM | CAKI-1 > 100 µM | SW-620 > 100 µM | SF-539 > 100 µM | SR 59.7 µM | NCI-H460 > 100 µM | COLO 205 > 100 µM | EKVX > 100 µM | BT-549 > 100 µM | HCC 2998 > 100 µM | OVCAR-3 > 100 µM | MDA-N > 100 µM | LOX IMVI > 100 µM

Oc1ccc(-c2c3ccccc3c(-c3ccc(OCCBr)cc3)c3ccccc23)cc1
30.7 µM: HCT-15
inactive: DU-145 > 100 µM | SF-268 56.1 µM | NCI-H23 15.6 µM | KM12 29.4 µM | K562 42.1 µM | CAKI-1 27.4 µM | SW-620 53.3 µM | SF-539 13.9 µM | SR 31.8 µM | NCI-H460 52.6 µM | COLO 205 31.2 µM | EKVX 32.9 µM | BT-549 30.1 µM | MOLT-4 > 100 µM | HCC 2998 44.2 µM | OVCAR-3 14.6 µM | MDA-N 26.4 µM | LOX IMVI 16.9 µM

COC(=O)NN=C(c1ccc(Cl)cc1)c1ccc(Cl)cc1
inactive: DU-145 80.7 µM | SF-268 > 100 µM | NCI-H23 > 100 µM | KM12 > 100 µM | K562 > 100 µM | CAKI-1 > 100 µM | SW-620 > 100 µM | SF-539 93.8 µM | SR 94.2 µM | NCI-H460 > 100 µM | COLO 205 51.2 µM | EKVX > 100 µM | BT-549 80.2 µM | MOLT-4 > 100 µM | HCC 2998 > 100 µM | OVCAR-3 > 100 µM | MDA-N > 100 µM | LOX IMVI > 100 µM
> 100 µM: HCT-15

CN(C)CCN1C(=O)N(CCN(C)C)c2c3cc(O)ccc3nc3c([N+](=O)[O-])ccc1c23
active: SR 0.245 µM
inactive: DU-145 10.7 µM | SF-268 8.47 µM | HOP-92 15.3 µM | NCI-H23 17.2 µM | KM12 7.91 µM | K562 4.57 µM | CAKI-1 13.1 µM | SW-620 4.92 µM | NCI-H460 3.63 µM | COLO 205 10.4 µM | BT-549 19.8 µM | HCC 2998 8.73 µM | MDA-N 13 µM | LOX IMVI 10.7 µM
6.52 µM: HCT-15

CC1(O)CC(C(F)(F)F)(C(F)(F)F)OC1=O (stereo unspecified)
> 10 µM: HCT-15
inactive: DU-145 > 10 µM | SF-268 > 10 µM | HOP-92 > 10 µM | NCI-H23 > 10 µM | KM12 > 10 µM | K562 > 10 µM | CAKI-1 > 10 µM | SW-620 > 10 µM | SF-539 > 10 µM | SR > 10 µM | NCI-H460 > 10 µM | COLO 205 > 10 µM | EKVX > 10 µM | BT-549 > 10 µM | MOLT-4 > 10 µM | HCC 2998 > 10 µM | OVCAR-3 > 10 µM | MDA-N > 10 µM | LOX IMVI > 10 µM

Nc1nc(-[n+]2ccc(-c3ccncc3)cc2)nc(Cl)c1Cl
inactive: DU-145 > 100 µM | SF-268 18.4 µM | HOP-92 23.8 µM | NCI-H23 22.5 µM | KM12 43.6 µM | K562 29.9 µM | SW-620 25.5 µM | SF-539 26.8 µM | SR 20 µM | NCI-H460 > 100 µM | COLO 205 36.2 µM | EKVX 26.6 µM | BT-549 > 100 µM | MOLT-4 18.9 µM | HCC 2998 > 100 µM | OVCAR-3 17.3 µM | MDA-N > 100 µM | LOX IMVI 15 µM
49.4 µM: HCT-15

CC(=O)O[C@H]1C(=O)[C@@]2(C)[C@H]([C@H](OC(=O)c3ccc(F)cc3)[C@]3(O)C[C@H](OC(=O)[C@H](O)[C@@H](NC(=O)c4ccccc4)c4ccccc4)C(C)=C1C3(C)C)[C@]1(OC(C)=O)CO[C@@H]1C[C@@H]2O
active: DU-145 0.0395 µM | SF-268 0.0929 µM | NCI-H23 0.124 µM | KM12 0.0113 µM | K562 0.00859 µM | SW-620 0.0065 µM | SF-539 0.0102 µM | SR 0.0108 µM | NCI-H460 0.0132 µM | COLO 205 0.0108 µM | BT-549 0.64 µM | MOLT-4 0.0146 µM | HCC 2998 0.0107 µM | OVCAR-3 0.00557 µM | MDA-N 0.0025 µM | LOX IMVI 0.00828 µM
inactive: CAKI-1 3.82 µM | EKVX 2 µM
1.47 µM: HCT-15

COc1cc(C2c3cc4c(cc3OC3(OC)COC(=O)C23)OCO4)cc(OC)c1OC(C)=O (stereo unspecified)
active: KM12 0.881 µM | K562 1.04 µM | SW-620 0.552 µM | SF-539 0.374 µM | NCI-H460 0.705 µM | MDA-N 0.206 µM | LOX IMVI 0.656 µM
inactive: DU-145 2.52 µM | SF-268 6.75 µM | HOP-92 51.2 µM | NCI-H23 3.27 µM | SR 2.53 µM | COLO 205 3.87 µM | EKVX > 35.8 µM | BT-549 5 µM | MOLT-4 3.96 µM | HCC 2998 2.75 µM | OVCAR-3 1.3 µM
0.798 µM: HCT-15

CC(CNC(=O)c1ccccc1)(CNC(=O)c1ccccc1)[N+](=O)[O-]
> 100 µM: HCT-15
inactive: DU-145 > 100 µM | SF-268 > 100 µM | HOP-92 > 100 µM | NCI-H23 > 100 µM | KM12 > 100 µM | K562 > 100 µM | CAKI-1 > 100 µM | SW-620 > 100 µM | SF-539 > 100 µM | SR > 100 µM | NCI-H460 > 100 µM | COLO 205 > 100 µM | EKVX > 100 µM | BT-549 > 100 µM | MOLT-4 > 100 µM | MDA-N > 100 µM

CC[C@@H]1/C=C/C=C/C[C@H](C)[C@@H](O)[C@](C)(O)C(=O)[C@H](C)[C@@H](O)[C@H](C)C(=O)[C@H](C)[C@@H](O)[C@H](C)/C=C/C(=O)O[C@H]2[C@@H](C)[C@@H](CC1)O[C@@]1(CC[C@@H](C)[C@@H](CC(C)O)O1)[C@@H]2C (stereo partly specified)
1.86 µM: HCT-15
active: NCI-H23 < 0.01 µM | K562 < 0.01 µM | NCI-H460 0.499 µM | COLO 205 < 0.01 µM | EKVX < 0.01 µM
inactive: DU-145 1.88 µM | SF-268 2.7 µM | HOP-92 1.59 µM | KM12 1.69 µM | CAKI-1 1.73 µM | SW-620 2.92 µM | SF-539 3.58 µM | SR 2 µM | BT-549 1.52 µM | MOLT-4 1.3 µM | HCC 2998 1.52 µM | MDA-N 1.61 µM | LOX IMVI 1.68 µM
